Experiment [1] is filed under the species Rattus norvegicus. Put plainly: The compound was tested for its cardiovascular activity in rat heart model. producing a 25% increase (EC25) in CF(coronary flow). It is filed as functional.
The species named for experiment [2] is Rattus norvegicus. The experiment in a line: The compound was tested for its cardiovascular activity in rat heart model. producing a 25% increase (EC25) in LV dP/dtmax (measure of contractility); N = not active. It is filed as functional, organism-based.
Experiment [3] is filed under the species Rattus norvegicus. Put plainly: The compound was tested for its cardiovascular activity in rat heart model. producing a 50% increase (EC50) in CF(coronary flow). In kind it is functional, organism-based.
Experiment [4] is filed under the species Rattus norvegicus. Put plainly: The compound was tested for its cardiovascular activity in rat heart model. producing a 50% increase (EC50) in LV dP/dtmax (measure of contractility); NA = not achieved. It is filed as functional, organism-based.
For experiment [5], the species on record is Rattus norvegicus. The experiment in a line: The compound was tested for its cardiovascular activity in rat heart model. producing a 25% increase (EC25) in LV dP/dtmax (measure of contractility). In kind it is functional.
The species entered for experiment [6] is Rattus norvegicus. The experiment in a line: The compound was tested for its cardiovascular activity in rat heart model. producing a 25% increase (EC25) in LV dP/dtmax (measure of contractility); NA = not achieved. In kind it is functional, organism-based.
For experiment [7], the system named is Canis familiaris. The experiment in a line: Total peripheral resistance was tested in anesthetized dogs for a dose of 0.1 mg/kg. In kind it is functional, Canis lupus familiaris.
The test system of experiment [8] is Canis familiaris. The experiment in a line: The compound was tested for its cardiovascular activity expressed as heart rate in beat/min in anesthetized dogs for a dose of 0.3 mg/kg. It is filed as functional, Canis lupus familiaris.
The test system of experiment [9] is Canis familiaris. Put plainly: Mean blood pressure was tested in anesthetized dogs. for a dose of 0.1 mg/kg. It is filed as functional, Canis lupus familiaris.
Experiment [10] concerns Canis familiaris. Put plainly: Mean blood pressure was tested in anesthetized dogs. for a dose of 0.3 mg/kg. In kind it is functional, Canis lupus familiaris.
The test system of experiment [11] is Canis familiaris. Put plainly: Mean blood pressure was tested in anesthetized dogs. for a dose of 1.0 mg/kg. It is filed as functional, Canis lupus familiaris.
Experiment [12] concerns Canis familiaris. Put plainly: The compound was tested for its cardiovascular activity in anesthetized dogs producing a 25% increase (EC25) in LV dP/dtmax (measure of contractility) for a dose of 1.0 mg/kg. It is filed as functional, Canis lupus familiaris, Heart.
The test system of experiment [13] is Canis familiaris. The experiment in a line: Total peripheral resistance was tested in anesthetized dogs for a dose of 1.0 mg/kg. In kind it is functional, Canis lupus familiaris.
Experiment [14] relates to Canis familiaris. Put plainly: The compound was tested for its cardiovascular activity expressed as heart rate in beat/min in anesthetized dogs for a dose of 1.0 mg/kg. In kind it is functional, Canis lupus familiaris.
Experiment [15] is filed under the species Rattus norvegicus. The experiment in a line: The compound was tested for its cardiovascular activity in rat heart model. producing a 50% increase (EC50) in LV dP/dtmax (measure of contractility). It is filed as functional, organism-based.
The species entered for experiment [16] is Rattus norvegicus. Put plainly: (§1) The compound was tested for its cardiovascular activity in rat heart model. producing a 25% increase (EC25) in CF(coronary flow); N = not active. In kind it is functional, organism-based.
For experiment [17], the species on record is Cavia porcellus. The experiment in a line: Coronary flow activity in Langendorff perfused guinea pig heart. It is filed as functional.
Experiment [18] has as its system Canis familiaris. The experiment in a line: The compound was tested for its cardiovascular activity in anesthetized dogs producing a 25% increase (EC25) in LV dP/dtmax (measure of contractility) for a dose of 0.1 mg/kg. In kind it is functional, Canis lupus familiaris, Heart.
Experiment [19] concerns Canis familiaris. Put plainly: The compound was tested for its cardiovascular activity in anesthetized dogs producing a 25% increase (EC25) in LV dP/dtmax (measure of contractility) for a dose of 0.3 mg/kg. In kind it is functional, Canis lupus familiaris, Heart.
For experiment [20], the system named is Canis familiaris. The experiment in a line: The compound was tested for its cardiovascular activity expressed as heart rate in beat/min in anesthetized dogs for a dose of 0.1 mg/kg. It is filed as functional, Canis lupus familiaris.
For experiment [21], the system named is Canis familiaris. The experiment in a line: Total peripheral resistance was tested in anesthetized dogs for a dose of 0.3 mg/kg. In kind it is functional, Canis lupus familiaris.
The species named for experiment [22] is Oryctolagus cuniculus. Put plainly: Calcium channel blocking activity in rabbit aortic rings. In kind it is functional. The conditions noted are these: Aorta.
The species entered for experiment [23] is Rattus norvegicus. The experiment in a line: The compound was tested for its cardiovascular activity in rat heart model. producing a 25% increase (EC50) in CF(coronary flow); NA = not achieved. It is filed as functional, organism-based.
For experiment [24], the system named is Canis familiaris. Put plainly: The compound was tested for its cardiovascular activity expressed as heart rate in beat/min in anesthetized dogs for a dose of 0.01 mg/kg. It is filed as functional, Canis lupus familiaris.
The subject of experiment [25] is Canis familiaris. Put plainly: The compound was tested for its cardiovascular activity in anesthetized dogs producing a 25% increase (EC25) in LV dP/dtmax (measure of contractility) for a dose of 0.01 mg/kg. In kind it is functional, Canis lupus familiaris, Heart.
Experiment [26] concerns Canis familiaris. The experiment in a line: Total peripheral resistance was tested in anesthetized dogs for a dose of 0.01 mg/kg. In kind it is functional, Canis lupus familiaris.
Experiment [27] deals with Canis familiaris. The experiment in a line: Mean blood pressure was tested in anesthetized dogs. for a dose of 0.01 mg/kg. It is filed as functional, Canis lupus familiaris.
Experiment [28] is filed under the species Rattus norvegicus. The description is as §1. It is filed as functional, organism-based. This is another data set of the same source.

Activity calls are given as the source filed them. The calls are words filed in the database; no cut-off is given here. Bounds are passed on as bounds.

Broadly, the EC25 is the concentration at which the effect reaches the 25% level.

`OC(COc1cccc2cnccc12)CN1CCN(c2ccccc2SCc2ccccc2)CC1` (configuration not stated) registered an EC25 in experiment [1] of 1000 nM. Besides, the EC25 result in [2] is “inactive”.
In experiment [1], `OC(COc1ccnc2cc(C(F)(F)F)ccc12)CN1CCN(C(c2ccccc2)c2ccccc2)CC1` (configuration not stated) showed an EC25 of 200 nM. Further, the EC25 result in experiment [2] is “inactive”. In experiment [3], this compound had an EC50 of 400 nM.
Take `OC(COc1ccc2cccnc2c1)CN1CCN(C(c2ccccc2)c2ccccc2)CC1` (configuration not stated): the EC50 result in experiment [4] was “Not Active”; in experiment [3] it was 1010 nM. Besides, the EC25 in experiment [1] is 160 nM; in [5] it was 700 nM.
In the case of `OC(COc1cccc2ncccc12)CN1CCN(C(c2ccccc2)c2ccccc2)CC1` (configuration not stated), the EC25 in experiment [1] amounted to 800 nM. Besides, in experiment [6], the EC25 result was “inactive”. In [3], this compound yielded an EC50 of 2000 nM.
Regarding `OC(COc1ccnc2ccccc12)CN1CCN(C(c2ccccc2)c2ccccc2)CC1` (configuration not stated), the Total peripheral resistance in experiment [7] is 3 mmHg·min/mL; in experiment [13] it was -17 mmHg·min/mL; in experiment [21], 6.5 mmHg·min/mL. The results for the Heart rate in [8], in experiment [14] and in experiment [20] were -3.5 beats min-1, -2.6 beats min-1 and -2 beats min-1, respectively. Also, the Mean blood pressure in [9] is 3 mmHg; in [10], 4.5 mmHg; in experiment [11], 3 mmHg. Besides, the Contractility is 115.5 mmHg s-1 in experiment [12], 12 mmHg s-1 in experiment [18] and 40 mmHg s-1 in [19]. In addition, the EC25 was 140 nM in experiment [5], 900 nM in experiment [17] and over 100000 nM in experiment [22]. For the same compound, in experiment [15], the EC50 was determined as 320 nM. Further, the EC25 entry in [16] was “inactive”.
Compound `Cc1cc(OCC(O)CN2CCN(C(c3ccccc3)c3ccccc3)CC2)c2ccccc2n1.Cl.O` (configuration not stated) returned an EC25 in experiment [1] of 800 nM.
For `N#Cc1cc2c(OCC(O)CN3CCN(C(c4ccccc4)c4ccccc4)CC3)cccc2[nH]1` (configuration not stated), the Total peripheral resistance is -17.3 mmHg·min/mL in [7], -24.5 mmHg·min/mL in experiment [13] and -9.6 mmHg·min/mL in experiment [26]. For the same compound, the Mean blood pressure is 2.3 mmHg in experiment [9], -21 mmHg in experiment [11] and 4.3 mmHg in experiment [27]. Further, the EC25 in experiment [1] is 300 nM; in [5] it was 20 nM; in experiment [17] it was 280 nM; in experiment [22], over 100000 nM. Besides, the Contractility in experiment [12] was determined as 83.3 mmHg s-1; in experiment [25], 9 mmHg s-1; in experiment [18], 21.3 mmHg s-1. Also, the Heart rate in experiment [14] was -1 beats min-1; in [24], 0.66 beats min-1; in experiment [20], -0.66 beats min-1. Also, the EC50 result was “Not Active” in experiment [23] and 35 nM in experiment [15].
In the case of `OC(COc1cccc2[nH]ccc12)CN1CCN(C(c2ccccc2)c2ccccc2)CC1` (configuration not stated), the EC25 in experiment [1] is 120 nM. The EC25 result in experiment [2] was “inactive”. For the same compound, the EC50 in experiment [3] amounted to 2500 nM.
In experiment [1], `OC(COc1cccc2cnccc12)CN1CCN(C(c2ccccc2)c2ccccc2)CC1` (configuration not stated) yielded an EC25 of 200 nM. Also, the EC25 result in experiment [2] was “inactive”. The EC50 in [3] worked out at 1500 nM.
`Cc1cc(OCC(O)CN2CCc3ccccc3C2)c2ccccc2n1` (configuration not stated): the EC50 result in experiment [28] was “Not Active”. Also, the EC25 result in experiment [2] is “inactive”.
The corresponding values for `Cc1cc(OCC(O)Cn2cnc3ccccc32)c2ccccc2n1` (configuration not stated) are “Not Active” and “inactive”.
Take `N#Cc1cc2c(OCC(O)CN3CCN(C(c4ccccc4)c4ccccc4)CC3)cccc2o1` (configuration not stated): the results for the Total peripheral resistance in experiment [7], in experiment [13] and in [21] were -0.66 mmHg·min/mL, -21.7 mmHg·min/mL and -8.66 mmHg·min/mL, respectively. In addition, the Heart rate in experiment [8] is reported as -1.66 beats min-1; in experiment [14], -3.33 beats min-1; in [20], 0 beats min-1. Moreover, the Mean blood pressure was -0.66 mmHg in experiment [9], -7.3 mmHg in experiment [10] and -14.5 mmHg in [11]. Also, the EC25 in experiment [1] was 100 nM; in experiment [5] it was 100 nM; in [17] it was 2250 nM; in [22] it was over 100000 nM. The Contractility in experiment [12] is 30.3 mmHg s-1; in experiment [18], 2 mmHg s-1; in experiment [19] it was 9.3 mmHg s-1. Also, the EC50 in [15] is 420 nM; in [3] it was 3000 nM.
With `CCOC(=N)c1cc2c(OCC(O)CN3CCN(C(c4ccccc4)c4ccccc4)CC3)cccc2o1` (configuration not stated), the EC25 in experiment [1] worked out at 1000 nM. In experiment [2], the EC25 result is “inactive”.
`Oc1nccc2c(OCC(O)CN3CCN(C(c4ccccc4)c4ccccc4)CC3)cccc12` (configuration not stated): the EC25 in experiment [1] was found to be 150 nM.
In turn, `Cl.OC(COc1ccc2ncccc2c1)CN1CCN(C(c2ccccc2)c2ccccc2)CC1` (configuration not stated) had an EC25 in experiment [5] of 480 nM. The EC50 in experiment [15] was 800 nM. The EC25 result in experiment [16] is “inactive”.

The values above are taken from ChEMBL document CHEMBL1126224, “Synthesis and biological activity of 4-(diphenylmethyl)-alpha-[(4-quinolinyloxy)methyl]-1-piperazineethanol and related compounds” (J Med Chem, 1992).
